Source: article PMC3525568, “The Natively Disordered Loop of Bcl-2 Undergoes Phosphorylation-Dependent Conformational Change and Interacts with Pin1” (PLoS ONE, 2012)
Where a SMILES comes first, the peptide text is derived from it. [ ]: non-standard residue; d: D form. pS = N[C@@H](COP(=O)(O)O)C(=O)O

What was measured:
[1] = target: T1, Pin1 (Homo sapiens, UniProt Q13526); test: Binding of peptides to 15N-labeled Pin1 by 2D 1H-15N HSQC NMR titration; design: decahistidine (10His) (N); made in house; own knowledge; details: 0.1 mM 15N-labeled Pin1, 90% H2O/10% D2O, 20 mM phosphate pH 7.0, 20 mM NaCl, 1 mM DTT, 0.01% NaN3, 300 K; HSQC chemical shift change vs ligand/protein ratio
Protocol: NMR data were acquired at 300 K on a Bruker Avance 600 equipped with a cryoprobe accessory. The NMR samples contained 0.1 mM ^15N-labeled Pin 1 in 90% H2O/10% D2O in 20 mM phosphate buffer, pH 7.0, 20 mM NaCl, 1 mM DTT, 0.01% NaN3. Chemical shift perturbations were monitored with 2D ^1H-^15N heteronuclear single quantum correlation spectroscopy (HSQC) upon addition of peptides. NMR spectra were processed using Bruker Topspin1.3. For the dissociation constant determination, lyophilized aliquots of peptides were mixed with ^15N-labeled Pin1 with different molar ratios and 2D ^15N HSQC was recorded. The dissociation constant, KD is expressed as [P]*[L]/[PL] and calculated as previously described, [21], [22].
Figure 3 Pin 1 binds to the phosphopeptide derived from the flexible loop of Bcl-2. The ^15N-labeled Pin1 (0.1 mM) was recorded with (A) 0.8 mM S87 and (B) phosphorylated S87 (pS87). The ^1H-^15N-HSQC spectra with or without peptide are show in blue and red, respectively. (C, D) Some of the amino acid chemical shifts change with the increasing peptide concentration. The arrows show the direction of chemical shift perturbations with an increasing concentration of ligand. (E, F) The relationship between chemical shift change and the ratio between ligand and protein was drawn. Values of KD were calculated from the graphs using the equation described in “Materials and methods”.

[2] = target: T1, Pin1; test: 1H-15N HSQC titration of 15N-Pin1; details: reference: unphosphorylated S87 peptide; sites S87
[3] = target: T1, Pin1; test: 1H-15N HSQC of 15N-Pin1 with peptide
[4] = system: ERK2; test: Phosphorylation of Bcl-2 proteins by ERK2 (γ-32P-ATP, autoradiography); type: biochemical; details: 50 mM Tris-HCl, 10 mM MgCl2, 2 mM DTT, 1 mM EGTA, 0.01% Brij 35, pH 7.5, SDS-PAGE
Protocol: (§1) For the phosphorylation of Bcl-2 by JNK, the purified Bcl-2 (6 µM) was incubated with 0.5 µM JNK for 1 h at 30°C in a buffer containing 10 mM Tris-HCl pH 7.5, 25 mM MgCl2, 1 mM EGTA, 1 mM ATP, 1 µCi γ-^32P-ATP, and 250 µM PMSF. For the phosphorylation of Bcl-2 by ERK2, ERK2 was incubated with purified Bcl-2 in a buffer containing 50 mM Tris-HCl, 10 mM MgCl2, 2 mM dithiothreitol (DTT), 1 mM EGTA, and 0.01% Brij 35 detergent, pH 7.5. The samples were separated on 12.5% gels by SDS-PAGE and visualized using autoradiography.
(§2) Supplementary file pone.0052047.s001.tif: Figure S1 Phosphorylation of Bcl-2 in the loop domain by ERK2 and JNK. (A–B) Different peptides (200 µM) were added into the reaction mixture with either (A) JNK (10 µM) or (B) ERK2 (10 µM). After reaction at 30°C for 1 h, the samples were heated at 90°C to inactivate the kinase and loaded onto C-18 column for reverse phase-HPLC analysis. (C) Point mutations of Bcl-2 (T56A and S87A) were used for the kinase reaction as described in “Materials and methods”, and the phosphorylation reactions were analyzed by using γ-^32P-ATP and followed by autoradiography. […] (E) The wild-type Bcl-2 and the flexible loop-deletion Bcl-2 mutant Bcl-2, Δ(V35–V89):6A were subject to the phosphorylation reactions by ERK2 and JNK. 1, Bcl-2 with ERK2; 2, Bcl-2Δ(V35–V89):6A with ERK2; 3, Bcl-2 with JNK; 4, Bcl-2Δ(V35–V89):6A with JNK. […]

[5] = system: JNK; test: Phosphorylation of Bcl-2 proteins by JNK (γ-32P-ATP, autoradiography); type: biochemical; details: Bcl-2 6 µM, JNK 0.5 µM, 1 h at 30°C, pH 7.5, γ-32P-ATP, SDS-PAGE
Protocol: as §1, §2

[6] = system: ERK2; test: Phosphorylation of Bcl-2 loop peptides by ERK2 (HPLC); type: biochemical; details: peptide 200 µM, ERK2 10 µM, 50 mM Tris-HCl, 10 mM MgCl2, 2 mM DTT, 1 mM EGTA, 0.01% Brij 35, pH 7.5, 30°C, 1 h; C-18 HPLC, 225 nm
Protocol: as §1
(§3) The loop peptides (200 µM) were mixed with JNK or ERK2 (10 µM) in the reaction buffer as described above in the “Phosphorylation of Bcl-2”. The reaction was performed at 30°C for 1 h. The samples were passed through a Ni^2+-NTA column to remove kinases fused with the histidine-tag, and the flow-through samples were combined and loaded on a C-18 column for HPLC analysis. The samples (20 µl) were injected into the C-18 column with a flow rate of 1 ml/min. The peptide was eluted with a linear gradient of acetonitrile from 0 to 30%, and the peptide peaks were detected at 225 nm.
(§4) Supplementary file pone.0052047.s001.tif: Figure S1 Phosphorylation of Bcl-2 in the loop domain by ERK2 and JNK. (A–B) Different peptides (200 µM) were added into the reaction mixture with either (A) JNK (10 µM) or (B) ERK2 (10 µM). After reaction at 30°C for 1 h, the samples were heated at 90°C to inactivate the kinase and loaded onto C-18 column for reverse phase-HPLC analysis. (C) Point mutations of Bcl-2 (T56A and S87A) were used for the kinase reaction as described in “Materials and methods”, and the phosphorylation reactions were analyzed by using γ-^32P-ATP and followed by autoradiography. […] (E) The wild-type Bcl-2 and the flexible loop-deletion Bcl-2 mutant Bcl-2, Δ(V35–V89):6A were subject to the phosphorylation reactions by ERK2 and JNK. 1, Bcl-2 with ERK2; 2, Bcl-2Δ(V35–V89):6A with ERK2; 3, Bcl-2 with JNK; 4, Bcl-2Δ(V35–V89):6A with JNK. (TIF) Click here for additional data file.

[7] = system: JNK; test: Phosphorylation of Bcl-2 loop peptides by JNK (HPLC); type: biochemical; details: peptide 200 µM, JNK 10 µM, 10 mM Tris-HCl pH 7.5, 25 mM MgCl2, 1 mM EGTA, 1 mM ATP, 30°C, 1 h; C-18 HPLC, 225 nm
Protocol: as §1, §3, §4

Compound	degree of phosphorylation by ERK2 [6]	degree of phosphorylation by JNK [7]	also measured
CC(C)C[C@H](NC(=O)[C@H](C)NC(=O)[C@@H]1CCCN1C(=O)CN)C(=O)N[C@@H](COP(=O)(O)O)C(=O)N1CCC[C@H]1C(=O)N[C@H](C(=O)N1CCC[C@H]1C(=O)N1CCC[C@H]1C(=O)N[C@H](C(=O)O)C(C)C)C(C)C [pS87] (H-GPAL[pS]PVPPV-OH)			Kd [1]: ~140 µM
Bcl-2 (from UniProt P10415) pS87 peptide			binding against the reference [2]: gained; reference no interaction
Bcl-2 (from UniProt P10415) pT56 peptide			binding against the reference ([3]; reference: unphosphorylated T56 peptide, sites T56): gained
Bcl-2 (from UniProt P10415) pT74 peptide			binding against the reference ([3]; reference: unphosphorylated T74 peptide, sites T74): gained
Bcl-2/S87A: single mutant form of Bcl-2 protein			ERK2-mediated phosphorylation of Bcl-2 protein [4]: affected; JNK-mediated phosphorylation of Bcl-2 protein [5]: affected
Bcl-2/T56A: single mutant form of Bcl-2 protein			JNK-mediated phosphorylation of Bcl-2 protein [5]: abolished
GPALSPVPPV [S87, synthetic peptide derived from the Bcl-2 loop covering S87]	preferred phosphorylation	preferred phosphorylation	
PLQTPAAPGA [T74, synthetic peptide derived from the Bcl-2 loop covering T74]	poorly phosphorylated	poorly phosphorylated	
PVARTSPLQT [S70, synthetic peptide derived from the Bcl-2 loop covering S70]	poorly phosphorylated	poorly phosphorylated	
QPGHTPHPAA [T56, synthetic peptide derived from the Bcl-2 loop covering T56]	able to phosphorylate the T56 peptide to a similar level	able to phosphorylate the T56 peptide to a similar level	
